Data taken from ChEMBL document CHEMBL5346920, “Development of the "hidden" multi-target-directed ligands by AChE/BuChE for the treatment of Alzheimer's disease” (Eur J Med Chem, 2023).
Calls of active or inactive are those of the source. The rule behind the calls is not given here.

Assays:
[1] = molecular target: T1, Amine oxidase [flavin-containing] B (Homo sapiens, UniProt P27338); assay: Inhibition of human recombinant MAO-B expressed in baculovirus-infected BTI cells using kynuramine as substrate incubated for 30 mins by fluorescence based analysis
T1 sequence (P27338 whole entry): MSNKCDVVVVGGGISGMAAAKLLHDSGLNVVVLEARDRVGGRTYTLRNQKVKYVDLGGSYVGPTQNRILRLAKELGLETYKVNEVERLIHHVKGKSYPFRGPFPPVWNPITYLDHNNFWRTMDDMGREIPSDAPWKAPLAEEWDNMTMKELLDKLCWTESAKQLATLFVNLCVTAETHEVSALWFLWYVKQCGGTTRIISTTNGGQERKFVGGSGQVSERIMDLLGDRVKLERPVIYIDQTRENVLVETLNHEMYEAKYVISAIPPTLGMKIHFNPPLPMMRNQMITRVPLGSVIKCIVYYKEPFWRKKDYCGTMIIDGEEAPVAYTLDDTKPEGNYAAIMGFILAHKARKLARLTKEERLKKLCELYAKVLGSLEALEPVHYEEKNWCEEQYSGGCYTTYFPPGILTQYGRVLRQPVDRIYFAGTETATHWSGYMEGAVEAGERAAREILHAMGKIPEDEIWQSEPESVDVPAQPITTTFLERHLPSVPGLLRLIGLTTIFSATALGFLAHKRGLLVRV

[2] = molecular target: T2, Amine oxidase [flavin-containing] A (Homo sapiens, UniProt P21397); assay: Inhibition of human recombinant MAO-A expressed in baculovirus-infected BTI cells using kynuramine as substrate at 62.5 uM incubated for 30 mins by fluorescence based analysis; conditions: 0.5 h
T2 sequence (P21397 whole entry): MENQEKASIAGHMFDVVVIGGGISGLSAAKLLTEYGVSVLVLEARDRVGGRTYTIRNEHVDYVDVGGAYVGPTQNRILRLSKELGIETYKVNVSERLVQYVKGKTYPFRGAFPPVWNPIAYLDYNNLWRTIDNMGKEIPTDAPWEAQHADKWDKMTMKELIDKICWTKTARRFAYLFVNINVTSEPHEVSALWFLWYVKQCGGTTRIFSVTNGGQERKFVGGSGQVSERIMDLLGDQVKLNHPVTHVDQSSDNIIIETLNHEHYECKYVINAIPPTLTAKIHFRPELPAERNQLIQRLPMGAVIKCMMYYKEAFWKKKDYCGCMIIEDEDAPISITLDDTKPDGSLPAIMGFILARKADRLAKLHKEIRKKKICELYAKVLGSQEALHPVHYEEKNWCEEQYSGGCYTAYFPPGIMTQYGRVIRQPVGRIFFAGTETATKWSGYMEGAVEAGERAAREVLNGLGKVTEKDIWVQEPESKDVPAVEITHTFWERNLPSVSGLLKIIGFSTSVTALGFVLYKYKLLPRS

[3] = molecular target: T2, Amine oxidase [flavin-containing] A; assay: Inhibition of human recombinant MAO-A expressed in baculovirus-infected BTI cells using kynuramine as substrate incubated for 30 mins by fluorescence based analysis
Homo sapiens = species on record: Homo sapiens; assay: Selectivity index, ratio of IC50 for inhibition of human recombinant MAO-A expressed in baculovirus-infected BTI cells to IC50 for inhibition of human recombinant MAO-B expressed in baculovirus-infected BTI cells
BV-2 [4] = assay: Cytotoxicity against mouse BV-2 cells assessed as reduction in cell viability at 10 uM by CCK8 assay; type: toxicity, cell-based; conditions: bv-2, 10 µM
BV-2 [5] = assay: Anti-inflammatory activity against LPS-stimulated mouse BV-2 cells assessed as inhibition of LPS-induced NO production incubated for 24 hrs in presence of LPS; type: functional, cell-based; conditions: dose 1-9 µM
PC-12 [6] = assay: Cytotoxicity against rat PC-12 cells assessed as cell viability at 40 uM by CCK-8 assay; type: toxicity, cell-based; conditions: pc-12, 40 µM
Acetylcholinesterase = Acetylcholinesterase (Electrophorus electricus, UniProt O42275); assay: Inhibition of electric eel AChE using acetylthiocholine chloride as substrate by Ellman's method
Sequence of Acetylcholinesterase (O42275 whole entry): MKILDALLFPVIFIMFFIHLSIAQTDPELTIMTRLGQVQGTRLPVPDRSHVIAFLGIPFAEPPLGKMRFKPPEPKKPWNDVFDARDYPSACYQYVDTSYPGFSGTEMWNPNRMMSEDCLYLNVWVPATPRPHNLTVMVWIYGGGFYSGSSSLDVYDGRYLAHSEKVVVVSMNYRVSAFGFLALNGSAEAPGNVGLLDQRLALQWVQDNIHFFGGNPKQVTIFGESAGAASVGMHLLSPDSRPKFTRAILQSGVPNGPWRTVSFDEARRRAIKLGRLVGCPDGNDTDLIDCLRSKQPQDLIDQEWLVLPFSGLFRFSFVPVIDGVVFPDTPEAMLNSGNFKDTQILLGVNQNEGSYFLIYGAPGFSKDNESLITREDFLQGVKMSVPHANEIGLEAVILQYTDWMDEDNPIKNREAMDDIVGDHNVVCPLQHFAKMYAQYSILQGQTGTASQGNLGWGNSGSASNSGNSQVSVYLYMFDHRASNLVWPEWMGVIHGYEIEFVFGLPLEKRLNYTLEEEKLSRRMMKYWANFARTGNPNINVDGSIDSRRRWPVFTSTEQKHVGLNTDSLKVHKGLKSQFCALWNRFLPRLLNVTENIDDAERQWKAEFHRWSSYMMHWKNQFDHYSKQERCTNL

Cholinesterase = Cholinesterase (Equus caballus, UniProt P81908); assay: Inhibition of equine serum BuChE using butyrylthiocholine chloride as substrate by Ellman's method; type: cell-free
Sequence of Cholinesterase (P81908 whole entry): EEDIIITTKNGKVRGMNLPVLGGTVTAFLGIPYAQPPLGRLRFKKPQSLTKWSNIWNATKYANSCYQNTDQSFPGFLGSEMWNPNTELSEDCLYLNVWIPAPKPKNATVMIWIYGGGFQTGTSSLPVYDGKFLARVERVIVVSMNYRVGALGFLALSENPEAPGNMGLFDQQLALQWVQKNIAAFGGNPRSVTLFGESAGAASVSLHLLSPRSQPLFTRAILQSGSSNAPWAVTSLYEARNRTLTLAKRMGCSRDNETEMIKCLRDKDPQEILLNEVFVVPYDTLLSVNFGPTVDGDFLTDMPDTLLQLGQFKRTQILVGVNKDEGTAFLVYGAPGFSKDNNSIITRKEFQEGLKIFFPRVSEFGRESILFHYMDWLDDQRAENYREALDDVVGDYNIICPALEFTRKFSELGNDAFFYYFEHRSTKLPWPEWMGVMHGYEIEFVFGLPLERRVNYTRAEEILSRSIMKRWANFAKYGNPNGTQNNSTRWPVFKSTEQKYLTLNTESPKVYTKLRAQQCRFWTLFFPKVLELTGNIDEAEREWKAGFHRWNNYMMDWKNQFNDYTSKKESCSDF

[7] = Selectivity index, ratio of IC50 for inhibition of electric eel AChE to IC50 for inhibition of equine serum BuChE
BV-2 [8] = assay: Anti-inflammatory activity against LPS-stimulated mouse BV-2 cells assessed as inhibition of LPS-induced IL-6 production incubated for 24 hrs in presence of LPS; type: functional, cell-based; conditions: dose 1-9 µM
BV-2 [9] = assay: Anti-inflammatory activity against LPS-stimulated mouse BV-2 cells assessed as inhibition of LPS-induced IL-1 beta production incubated for 24 hrs in presence of LPS; type: functional, cell-based; conditions: dose 1-9 µM
PC-12 [10] = assay: Neuroprotective activity against Amyloid beta(25 to 35)-induced cell injury in rat PC12 cells assessed as increase in cell viability pretreated for 2 hrs followed by incubation with Abeta(25 to 35) for 24 hrs by CCK-8 assay; type: functional, cell-based; conditions: dose 5-20 µM, time 26.0 hrs
[11] = molecular target: Amyloid-beta precursor protein (Homo sapiens) (UniProt P05067); assay: Inhibition of self-induced Amyloid beta (1 to 42) (unknown origin) aggregation at 25 uM incubated for 24 hrs by thioflavin T-based fluorescence analysis
Sequence of Amyloid-beta precursor protein (Homo sapiens) (P05067 whole entry): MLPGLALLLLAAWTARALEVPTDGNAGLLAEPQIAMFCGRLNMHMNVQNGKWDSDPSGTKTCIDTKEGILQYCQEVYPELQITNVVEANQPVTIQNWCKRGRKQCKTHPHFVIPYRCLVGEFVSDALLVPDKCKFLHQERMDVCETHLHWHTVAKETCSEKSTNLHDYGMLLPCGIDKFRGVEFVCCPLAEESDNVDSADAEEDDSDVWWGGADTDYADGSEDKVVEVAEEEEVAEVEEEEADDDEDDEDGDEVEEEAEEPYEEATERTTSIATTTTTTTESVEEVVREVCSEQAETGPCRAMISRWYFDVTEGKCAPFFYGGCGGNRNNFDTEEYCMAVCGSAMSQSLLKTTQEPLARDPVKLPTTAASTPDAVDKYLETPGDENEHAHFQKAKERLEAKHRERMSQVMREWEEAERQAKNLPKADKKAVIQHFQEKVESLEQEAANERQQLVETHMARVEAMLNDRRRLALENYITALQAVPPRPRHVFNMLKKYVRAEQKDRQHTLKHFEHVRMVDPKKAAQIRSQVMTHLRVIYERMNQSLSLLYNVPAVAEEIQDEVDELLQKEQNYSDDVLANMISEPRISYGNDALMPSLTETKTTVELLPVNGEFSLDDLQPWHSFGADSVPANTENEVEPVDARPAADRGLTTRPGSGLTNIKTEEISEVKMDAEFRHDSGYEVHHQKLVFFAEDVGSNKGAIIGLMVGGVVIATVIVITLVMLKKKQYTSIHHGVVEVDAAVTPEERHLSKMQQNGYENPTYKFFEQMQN

[12] = Cytotoxicity against mouse BV-2 cells assessed as cell viability at 30 uM by CCK8 assay; type: toxicity, cell-based; conditions: BV-2 cells, read-out: Activity
BV-2 [13] = assay: Anti-inflammatory activity against LPS-stimulated mouse BV-2 cells assessed as inhibition of LPS-induced IL-6 production by measuring IL-6 level at 9 uM incubated for 24 hrs in presence of LPS (reference value: 1503.2 pg/ml); type: functional
BV-2 [14] = assay: Anti-inflammatory activity against LPS-stimulated mouse BV-2 cells assessed as inhibition of LPS-induced IL-6 production by measuring IL-6 level at 3 uM incubated for 24 hrs in presence of LPS (reference value: 1503.2 pg/ml); type: functional
BV-2 [15] = assay: Anti-inflammatory activity against LPS-stimulated mouse BV-2 cells assessed as inhibition of LPS-induced IL-6 production by measuring IL-6 level at 1 uM incubated for 24 hrs in presence of LPS (reference value: 1503.2 pg/ml); type: functional
BV-2 [16] = assay: Anti-inflammatory activity against LPS-stimulated mouse BV-2 cells assessed as inhibition of LPS-induced IL-1 beta production by measuring IL-beta level at 9 uM incubated for 24 hrs in presence of LPS (reference value: 221.3 pg/ml); type: functional
BV-2 [17] = assay: Anti-inflammatory activity against LPS-stimulated mouse BV-2 cells assessed as inhibition of LPS-induced IL-1 beta production by measuring IL-beta level at 3 uM incubated for 24 hrs in presence of LPS (reference value: 221.3 pg/ml); type: functional
BV-2 [18] = assay: Anti-inflammatory activity against LPS-stimulated mouse BV-2 cells assessed as inhibition of LPS-induced IL-1 beta production by measuring IL-beta level at 1 uM incubated for 24 hrs in presence of LPS (reference value: 221.3 pg/ml); type: functional
PC-12 [19] = assay: Neuroprotective activity against Amyloid beta(25 to 35)-induced cell injury in rat PC12 cells assessed as cell viability at 5 uM pretreated for 2 hrs followed by incubation with Abeta(25 to 35) for 24 hrs by CCK-8 assay (reference value: 41 to 58.6%); type: functional; conditions: time 26 hrs, read-out: Activity
PC-12 [20] = assay: Neuroprotective activity against Amyloid beta(25 to 35)-induced cell injury in rat PC12 cells assessed as cell viability at 10 uM pretreated for 2 hrs followed by incubation with Abeta(25 to 35) for 24 hrs by CCK-8 assay (reference value: 41 to 58.6%); type: functional; conditions: time 26 hrs, read-out: Activity
PC-12 [21] = assay: Neuroprotective activity against Amyloid beta(25 to 35)-induced cell injury in rat PC12 cells assessed as cell viability at 20 uM pretreated for 2 hrs followed by incubation with Abeta(25 to 35) for 24 hrs by CCK-8 assay (reference value: 41 to 58.6%); type: functional; conditions: time 26 hrs, read-out: Activity
[22] = Permeability of the compound at 100 ug/ml incubated for 18 hrs by PAMPA assay; type: ADME; conditions: dose 100 µg/ml, read-out: permeability
[23] = molecular target: Acetylcholinesterase (Electrophorus electricus) (UniProt O42275); assay: Reversible inhibition of electric eel AChE assessed as enzyme activity using acetylthiocholine iodide as substrate measured after dilution to 0.1XIC50 for 120 mins by Ellman's method; set-up: scale not given: the % may be the effect or the level left
Sequence of Acetylcholinesterase (Electrophorus electricus) (O42275 24-633 limits assumed): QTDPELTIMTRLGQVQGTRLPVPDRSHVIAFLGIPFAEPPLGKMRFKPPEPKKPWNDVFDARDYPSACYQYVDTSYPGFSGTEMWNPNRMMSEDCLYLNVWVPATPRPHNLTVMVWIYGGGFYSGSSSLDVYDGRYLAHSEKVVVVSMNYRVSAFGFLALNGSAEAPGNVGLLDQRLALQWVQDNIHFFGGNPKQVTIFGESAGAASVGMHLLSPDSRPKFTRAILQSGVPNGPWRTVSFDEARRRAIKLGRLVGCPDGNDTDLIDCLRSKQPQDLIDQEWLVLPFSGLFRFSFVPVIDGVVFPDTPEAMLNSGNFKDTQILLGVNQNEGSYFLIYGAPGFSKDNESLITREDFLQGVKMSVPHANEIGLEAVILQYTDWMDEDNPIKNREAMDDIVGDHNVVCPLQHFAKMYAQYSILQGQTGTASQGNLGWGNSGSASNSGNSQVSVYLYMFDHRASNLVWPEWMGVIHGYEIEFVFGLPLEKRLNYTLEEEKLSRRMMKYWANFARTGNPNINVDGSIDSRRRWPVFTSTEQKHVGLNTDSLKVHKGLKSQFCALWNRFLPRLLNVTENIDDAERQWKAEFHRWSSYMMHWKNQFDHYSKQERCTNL

[24] = molecular target: Cholinesterase (Equus caballus) (UniProt P81908); assay: Reversible inhibition of equine serum BuChE assessed as enzyme activity using butyrylthiocholine chloride as substrate measured after dilution to 0.1XIC50 for 240 mins by Ellman's method; type: cell-free; set-up: scale not given: the % may be the effect or the level left
Sequence of Cholinesterase (Equus caballus) (P81908 whole entry): as the sequence (P81908 whole entry) above

[25] = Metal chelating activity assessed as compound-Cu2+ complex formation by measuring inhibition of Cu2+-induced amyloid beta (1 to 42) aggregation at 25 uM by thioflavin T-based fluorescence analysis
[26] = Metal chelating activity assessed as compound-Cu2+ complex formation by measuring small fiber aggregates incubated for 24 hrs by transmission electron microscopy

## O=C(/C=C/c1c(Br)cccc1Br)c1ccccc1O
[1]
  IC50: 60.3 µM
[2]
  inhibition at 62.5 µM: < 15%

## COc1ccc(Br)cc1/C=C/C(=O)c1ccccc1O
[1]
  IC50: 27.5 µM
[2]
  inhibition at 62.5 µM: < 15%

## CN(C)C(=O)Oc1ccccc1C(=O)/C=C/c1ccc(F)cc1
[3]
  IC50: 31.5 µM
[1]
  IC50: 2.7 µM
Homo sapiens
  Ratio IC50: 11.7
BV-2 [4]
  Activity: Non-Toxic
BV-2 [5]
  Activity: Dose-Dependent Effect
PC-12 [6]
  Activity: Non-Toxic
Acetylcholinesterase
  IC50: 8.7 µM
Cholinesterase
  IC50: 6.3 µM
[7]
  Ratio IC50: 1.4
BV-2 [8]
  Activity: Dose-Dependent Effect
BV-2 [9]
  Activity: Dose-Dependent Effect
PC-12 [10]
  Activity: Dose-Dependent Effect

## COc1ccccc1/C=C/C(=O)c1ccccc1O
[1]
  IC50: 5.9 µM
[2]
  inhibition at 62.5 µM: < 15%

## O=C(/C=C/c1ccc(Cl)cc1)c1ccccc1O
[3]
  IC50: 78.8 µM
[1]
  IC50: 10.3 µM
Homo sapiens
  Ratio IC50: 7.7

## CCN(CC)C(=O)Oc1ccccc1C(=O)/C=C/c1ccc(F)cc1
[3]
  IC50: 52.3 µM
[1]
  IC50: 2.1 µM
Homo sapiens
  Ratio IC50: 24.9
BV-2 [4]
  Activity: Non-Toxic
BV-2 [5]
  Activity: Dose-Dependent Effect
PC-12 [6]
  Activity: Non-Toxic
Acetylcholinesterase
  IC50: 11.2 µM
Cholinesterase
  IC50: 18.9 µM
[7]
  Ratio IC50: 0.59
BV-2 [8]
  Activity: Dose-Dependent Effect
BV-2 [9]
  Activity: Dose-Dependent Effect
PC-12 [10]
  Activity: Dose-Dependent Effect

## O=C(/C=C/c1cc2ccccc2c2ccccc12)c1ccccc1O
[1]
  IC50: 76.8 µM
[2]
  inhibition at 62.5 µM: < 15%

## O=C(/C=C/c1ccc(O)cc1)c1ccccc1O
[3]
  IC50: 66.1 µM
[1]
  IC50: 0.8 µM
Homo sapiens
  Ratio IC50: 82.6
[11]
  inhibition: 80.7%
BV-2 [4]
  Activity: Non-Toxic
[12]
  viability at 30 µM: 71.5%
BV-2 [13]
  Activity: 337.5 pg/mL
BV-2 [14]
  Activity: 489.3 pg/mL
BV-2 [15]
  Activity: 763.2 pg/mL
BV-2 [16]
  Activity: 50.9 pg/mL
BV-2 [17]
  Activity: 77.6 pg/mL
BV-2 [18]
  Activity: 147.6 pg/mL
BV-2 [5]
  Activity: Dose-Dependent Effect
PC-12 [6]
  Activity: Non-Toxic
PC-12 [19]
  viability at 5 µM: 88.9%
PC-12 [20]
  viability at 10 µM: 91%
PC-12 [21]
  viability at 20 µM: 94.6%

## COc1ccc(/C=C/C(=O)c2ccccc2O)cc1
[3]
  IC50: 53.2 µM
[1]
  IC50: 1.3 µM
Homo sapiens
  Ratio IC50: 40.9
[11]
  inhibition: 61.1%
BV-2 [4]
  Activity: Non-Toxic
[12]
  viability at 30 µM: 78.9%
BV-2 [5]
  Activity: Dose-Dependent Effect
PC-12 [6]
  Activity: Non-Toxic
BV-2 [8]
  Activity: Dose-Dependent Effect
BV-2 [9]
  Activity: Dose-Dependent Effect
PC-12 [10]
  Activity: Dose-Dependent Effect

## CCn1cc(C(=O)O)c(=O)c2cc(F)c(N3CCNCC3)cc21 [NORFLOXACIN]
[22]
  Papp at 18 h, 100 ug/ml: 0.21 ×10⁻⁶ cm/s

## CCN(C)C(=O)Oc1cccc([C@H](C)N(C)C)c1
[23]
  Activity: 94.7%
[24]
  Activity: 81.2%

## O=C(/C=C/c1ccc(Br)cc1OC(F)(F)F)c1ccccc1O
[3]
  IC50: 59.3 µM
[1]
  IC50: 2.6 µM
Homo sapiens
  Ratio IC50: 22.9

## O=C(/C=C/c1ccccc1F)c1ccccc1O
[1]
  IC50: 12.6 µM
[2]
  inhibition at 62.5 µM: < 15%

## O=C(/C=C/c1cccc(O)c1)c1ccccc1O
[3]
  IC50: 50.9 µM
[1]
  IC50: 1.7 µM
Homo sapiens
  Ratio IC50: 29.9

## COc1cccc(/C=C/C(=O)c2ccccc2O)c1
[3]
  IC50: 35.7 µM
[1]
  IC50: 3.4 µM
Homo sapiens
  Ratio IC50: 10.5

## COc1cc(/C=C/C(=O)CC(=O)/C=C/c2ccc(O)c(OC)c2)ccc1O [CURCUMIN]
PC-12 [6]
  Activity: Non-Toxic
PC-12 [19]
  viability at 5 µM: 62.5%
PC-12 [20]
  viability at 10 µM: 76.3%
PC-12 [21]
  viability at 20 µM: 85.5%
[25]
  inhibition: 53.5%
[26]
  Activity: Active

## O=C(/C=C/c1c(F)cccc1Br)c1ccccc1O
[1]
  IC50: 4.7 µM
[2]
  inhibition at 62.5 µM: < 15%

## COc1ccc2cc(/C=C/C(=O)c3ccccc3O)ccc2c1
[1]
  IC50: 78.4 µM
[2]
  inhibition at 62.5 µM: < 15%

## O=C(/C=C/c1ccc2ccccc2c1Br)c1ccccc1O
[1]
  IC50: 2.8 µM
[2]
  inhibition at 62.5 µM: < 15%
